Structures can show the parent of a compound that is named as a salt.
Tested on: cardiac ischemia
Assay: dosage study in the monkey model of cardiac ischemia
Type: in vivo
Method: This was done in groups of n=8 animals. […] The control groups consisted of sham operated animals undergoing no ischemia, and 2 groups undergoing cardiac ischemia: a saline control (n=8), and a “positive control” group (n=8) treated with Metoprolol tartrate (3 mg/kg), as usually applied to MI patients.

[1] = day 7, positive control 3 mg/kg

Compound: COCCc1ccc(OCC(O)CNC(C)C)cc1 (stereo not shown) [Metoprolol tartrate]
- NT Pro BNP concentration [1]: 45.7 ± 15.4 pg/mL
- ratio of infarcted heart area [1]: 5.80+/−1.83%
- index of myocardial contractility (−dp/dt) (positive control 3 mg/kg): remained unchanged
- reduction of infarcted area versus saline control (positive control 3 mg/kg): 55%
